{"source": "patent US8110365B2", "about": "“Compositions and methods for detecting and treating renal injury and inflammation” (Rhode Island Hospital, priority 2006, dated 2012)", "key": {"GSK3b": {"molecular_target": "GSK3b (Homo sapiens, UniProt P49841)", "sequence (P49841 whole entry)": "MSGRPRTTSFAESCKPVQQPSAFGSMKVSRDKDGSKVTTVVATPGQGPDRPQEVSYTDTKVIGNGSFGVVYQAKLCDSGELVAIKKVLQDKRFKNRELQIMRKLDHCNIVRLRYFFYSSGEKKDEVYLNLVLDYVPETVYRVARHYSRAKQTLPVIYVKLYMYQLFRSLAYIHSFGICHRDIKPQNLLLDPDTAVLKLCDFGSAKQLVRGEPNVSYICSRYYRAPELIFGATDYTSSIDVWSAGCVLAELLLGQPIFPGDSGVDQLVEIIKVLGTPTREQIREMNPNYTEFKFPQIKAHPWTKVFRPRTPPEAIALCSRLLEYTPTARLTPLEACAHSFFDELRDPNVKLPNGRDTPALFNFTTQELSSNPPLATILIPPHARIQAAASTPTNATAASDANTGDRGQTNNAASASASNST", "test": "Inhibitory phosphorylation of GSK3b in HUVEC (immunoblot)", "format": "cell-based", "parameters": "endogenous in cells", "conditions": "LiCl 20 mM, HGF 100 ng/ml"}, "remnant kidney rats": {"tested_on": "remnant kidney rats", "test": "Rat remnant kidney model (5/6 nephrectomy)", "format": "in vivo", "conditions": "for inflammation and injury in remnant kidneys: rats, treatment for 2 wk beginning 2 wk after nephrectomy", "from_the_text": "We examined the molecular mechanism of HGF's anti-inflammatory actions in a model of CKD. Beginning 2 wk after ⅚^th nephrectomy, rats received exogenous HGF, neutralization of endogenous HGF by daily injection of an anti-HGF antibody, or preimmune IgG for 2 wk. […] There were parallel alterations in endothelial activation and inflammation, marked by de novo E-selectin expression and leukocyte adhesion to renal vascular endothelium. […] Thus, the GSK3b inhibitor HGF has direct anti-inflammatory effects via suppression of NF-KB and endothelial inflammation."}, "E-selectin": {"tested_on": "E-selectin", "test": "TNF-α induced E-selectin expression in HUVEC", "format": "cell-based, human"}, "NFkB p65": {"tested_on": "NFkB p65", "test": "ChIP of NFkB p65 at MCP-1 and RANTES promoters in HKC cells", "format": "cell-based, human", "from_the_text": "The in situ interaction between NFκB and its target genes in HKC cells was examined by ChIP assay (35) using a commercially available kit (Upstate Biotechnology, Charlottesville, Va.) according to manufacturer's instructions. Briefly, HKC cells were fixed and crosslinked with 4% formaldehyde. After collection of cell pellets and sonication, aliquots of the samples were set aside as input fraction and the rest subjected to immunoprecipitation using an anti-NFκB p65 antibody or preimmune IgG and Protein A agarose used to pull down the immune complexes. After elution, precipitated chromatin as well as the input fraction was heated at 65° C. to reverse crosslinks and the DNA extracted with Qiagen PCR purification kit (Qiagen, Valencia, Calif.). DNA sequences spanning the κB responsive elements in the promoter region were amplified by PCR using specific primers (MCP-1, forward 5′-[…]-3′ (SEQ ID NO: 1), reverse 5′-[…]-3′(SEQ ID NO: 2), Genbank accession number Y18933; RANTES, forward 5′-[…]-3′ (SEQ ID NO: 3), reverse 5′-[…]-3′ (SEQ ID NO: 4), Genbank accession number S64885) for a number of cycles in the exponential phase as estimated in pilot experiments. DNA samples extracted from input fractions were amplified in parallel for normalization. PCR products resolved in ˜1.5 to 2% agarose gels were photographed under ultraviolet light."}, "NF-κB": {"tested_on": "NF-κB", "test": "NF-κB luciferase reporter gene assay in endothelial cells", "format": "cell-based, human", "conditions": "24 h", "experimental": "(§1) To explore the role of GSK3b in HGF suppression of inflammation, we examined the effect of HGF on NF-κB activation in endothelial cells (FIG. 8A˜C) and TEC (FIG. 8D). […] (FIG. 8A). To determine whether HGF modulation of NF-κB transcriptional activity alters target gene (E-selectin) levels, DNA affinity precipitation assay was carried out at 4 h after treatment. Proteins in cell lysates were pulled down by biotin labeled oligonucleotides with the sequence of the E-selectin promoter region spanning the κB elements. […] To further examine the effect of HGF on NF-κB binding to the E-selectin gene in vivo, chromatin immunoprecipitation (ChIP) was applied at 4 h after treatments (FIG. 8C)."}, "MCP-1 and RANTES [1]": {"tested_on": "MCP-1 and RANTES", "test": "TNF-α induced chemokine (MCP-1, RANTES) expression in HKC cells", "format": "cell-based, human", "experimental": "In certain embodiments, Enzyme-linked Immunosorbent assay (ELISA) is used to evaluate GSK3b proten level. For example, rat kidneys were homogenized in RIPA [1% Nonidet P-40, 0.1% SDS, 100ug/ml phenylmethysulfonyl fluoride (PMSF), 0.5% sodium deoxycholate, 1 mM sodium orthovanadate, 2 ug/ml aprotin, 2 ug/ml leupeptin, 5 mM EDTA in PBS] buffer. Chemokine levels in homogenates of equal amounts of total protein were measured using specific sandwich enzyme immunometric assay kits for rat. Chemokines in conditioned media from HKC were determined by specific sandwich ELISA kits for human (R&D Systems) according to the manufacturer's instructions. Results were normalized for protein amounts in kidney homogenates, or for cell number in cultures.\nHuman proximal TEC (HKC-8) (courtesy of Dr. L. Racusen of John Hopkins University, Baltimore, Md.) were maintained in Dulbecco's modified Eagle's medium (DMEM)/F12 supplemented with 5% fetal bovine serum (FBS). Cells were plated at approximately 70% confluence in the media containing 5% FBS for 24 h and then underwent serum starvation for another 24 h. Human recombinant HGF and human recombinant TNF-α (R&D systems, Minneapolis, Minn.) were added to the culture with fresh serum-free medium at a final concentration of 20 ng/ml and 2 ng/ml respectively, or otherwise as indicated. Cell viability was assessed by Trypan blue exclusion. At different time points, cells and conditioned media were harvested for further investigation."}, "endothelial E-selectin": {"tested_on": "endothelial E-selectin", "test": "Acute inflammation induced by bolus injection of TNF-α in vivo", "conditions": "infusion of exogenous HGF"}, "[2]": {"tested_on": "NF-κB p65 binding to E-selectin promoter", "test": "DNA affinity precipitation and ChIP of NF-κB p65 at the E-selectin promoter in HUVEC", "format": "cell-based, human", "conditions": "4 h after treatment", "experimental": "as §1"}, "MCP-1 and RANTES [3]": {"tested_on": "MCP-1 and RANTES", "test": "Chemokine expression in immortalized rat proximal tubular cells (IRPTC)", "format": "cell-based"}}, "note": "“Also recorded” adds a separate entry of the source."}
{"substance": "HGF: Human recombinant HGF (R&D systems); induces inhibitory phosphorylation of GSK3b", "values": [{"measurement": "inhibitory phosphorylation of GSK3b at serine 9", "setting": "GSK3b", "value": "inhibited its downstream transducer, GSK-3b, by phosphorylation at serine-9; also recorded: inactivates GSK3b by inhibitory phosphorylation at ser-9; also recorded: induces inhibitory phosphorylation of GSK3b"}, {"measurement": "sequestration of circulating macrophages in the remnant kidney", "setting": "remnant kidney rats; exogenous HGF", "value": "markedly diminished sequestration of circulating macrophages in the remnant kidney"}, {"measurement": "inflammation and injury in remnant kidneys", "setting": "remnant kidney rats", "value": "ameliorated; also recorded: reduces inflammatory infiltration, tubular and glomerular injury"}, {"measurement": "inflammation and injury in remnant kidneys", "setting": "remnant kidney rats; listed as hepatocyte growth factor", "value": "profoundly ameliorating gross renal inflammation"}, {"measurement": "expression of metalloproteinase-9 (MMP-9)", "setting": "remnant kidney rats; remnant kidney rats", "value": "increasing expression of metalloproteinase-9 (MMP-9)"}, {"measurement": "expression of transforming growth factor-beta (TGF-β)", "setting": "remnant kidney rats; remnant kidney rats", "value": "did not reduce expression of transforming growth factor-beta (TGF-β)"}, {"measurement": "levels of PAI-1 and TIMP-1", "setting": "remnant kidney rats; remnant kidney rats", "value": "decreasing levels of plasminogen activator inhibitor-1 (PAI-1) and tissue inhibitor of metalloproteinase-1 (TIMP-1)"}, {"measurement": "renal / tubular expression of proinflammatory molecules (MCP-1, RANTES, E-selectin)", "setting": "remnant kidney rats; remnant kidney rats", "value": "decreased staining to normal"}, {"measurement": "interstitial injury", "setting": "remnant kidney rats; remnant kidney rats with established renal injury", "value": "reduced interstitial injury"}, {"measurement": "decrease of interstitial macrophages", "setting": "remnant kidney rats; remnant kidney rats, continuous infusion for two weeks", "value": "more than 50%"}, {"measurement": "renal / tubular expression of proinflammatory molecules (MCP-1, RANTES, E-selectin)", "setting": "remnant kidney rats; remnant kidney rats, listed as hepatocyte growth factor", "value": "reduced renal expression of proinflammatory molecules such as RANTES, and E-selectin"}, {"measurement": "HGF inhibition of TNF-a induced E-selectin expression", "setting": "E-selectin; HUVEC expressing uninhibitable mutant S9A-GSK3b", "value": "abolished HGF suppression of E-selectin; also recorded: abolished the suppressive action of HGF; also recorded: abolishes HGF inhibition of endothelial E-selectin"}, {"measurement": "HGF inhibition of TNF-a induced E-selectin expression", "setting": "E-selectin; HUVEC transfected with pcDNA3 or HA-WT-GSK3b", "value": "HGF inhibition of E-selectin expression was evident"}, {"measurement": "TNF-α induced E-selectin expression", "setting": "E-selectin; HUVEC, lithium 20 mM, HGF 100 ng/ml, TNF-a 0.5 ng/ml", "value": "suppressed endothelial expression of E-selectin; also recorded: suppressed TNF-α-induced expression of E-selectin; also recorded: attenuates TNF-α elicited E-selectin expression; also recorded: attenuates TNF-a (0.5 ng/ml) elicited E-selectin expression"}, {"measurement": "TNF-a induced recruitment of NFkB p65 to MCP-1 and RANTES promoters", "setting": "NFkB p65", "value": "substantially attenuated by concomitant HGF treatment; also recorded: markedly attenuated"}, {"measurement": "TNF-α induced NF-κB reporter gene (transcription) activity", "setting": "NF-κB", "value": "suppressed TNF-a induced NF-kB reporter gene activity; also recorded: significantly reduced TNF-α induced NF-κB transcription activity; also recorded: blunts NF-kB activation"}, {"measurement": "HGF inhibition of chemokine (RANTES, MCP-1) expression", "setting": "MCP-1 and RANTES [1]; HKC cells expressing uninhibitable mutant S9A-GSK3b", "value": "abolished HGF inhibition of basal and TNF-α stimulated RANTES expression; also recorded: abolished HGF suppression of E-selectin; also recorded: abolishes HGF's inhibitory effect"}, {"measurement": "HGF inhibition of chemokine (RANTES, MCP-1) expression", "setting": "MCP-1 and RANTES [1]; HKC cells transfected with pcDNA3 or WT-GSK3b", "value": "did not alter the inhibitory action of HGF on RANTES; also recorded: HGF inhibition of chemokine expression was evident"}, {"measurement": "basal and TNF-α induced chemokine (RANTES, MCP-1) expression", "setting": "MCP-1 and RANTES [1]; HKC cells, lithium 20 mM, HGF 20 ng/ml, TNF-a 2 ng/ml", "value": "suppresses basal and TNF-α-induced expression of RANTES in a time and dose dependent fashion; also recorded: suppressed MCP-1 and RANTES in a time and dose dependent manner; also recorded: blocked this induction; also recorded: attenuates TNF-α elicited chemokine expression; also recorded: attenuates TNF-a (2 ng/ml) elicited chemokine expression"}, {"measurement": "endothelial expression of E-selectin", "setting": "endothelial E-selectin", "value": "reduced endothelial expression of E-selectin induced by bolus injection of TNF-α"}, {"measurement": "sequestration of circulating macrophages in the kidney", "setting": "endothelial E-selectin", "value": "less sequestration of circulating macrophages in the kidney"}, {"measurement": "TNF-α induced NF-κB binding to E-selectin promoter / gene", "setting": "[2]", "value": "counteracted NF-kB interaction with kB elements at the E-selectin gene level; also recorded: significantly blunted TNF-α induced NF-κB binding to E-selectin promoter sequence; also recorded: prevents NF-κB mediated transcription of E-selectin; also recorded: blunts NF-kB activation and its target E-selectin gene"}, {"measurement": "basal and TNF-α induced expression of MCP-1 and RANTES", "setting": "MCP-1 and RANTES [3]", "value": "suppressed basal and TNF-α induced expression of MCP-1 and RANTES"}]}
